Nine compounds from patent publication US20110104186A1, “Small molecule immunopotentiators and assays for their detection” (priority 2004, published 2011) can be followed below.

Some results are limits rather than exact numbers.

What is called IC50 is the point on the concentration scale where inhibition reaches its midpoint.

This experiment deals with TNF-α production. The experiment can be described thus: In vitro inhibition of TNF-α production by 1H-imidazoquinolines. In kind it is cell-based.
The compound “1-[2-(methyloxy)phenyl]-4-{[3,4,5-tris(methyloxy)phenyl]carbonyl} piperazine [Example 16]” had a concentration for half-maximal inhibition (IC50) of 8.02 µM.
Next, “1-[(3-fluorophenyl)carbonyl]-4-{[4-(trifluoromethyl)phenyl] methyl}piperazine [Example 12]”: 3.66 µM.
“3-({4-[(2E)-3-phenylprop-2-enyl]piperazin-1-yl}carbonyl)-7-oxabicyclo[2.2.1]heptane-2-carboxylic acid [Example 15]” had a concentration for half-maximal inhibition (IC50) of 3.68 µM. The IC50 values of the last two compounds are within 1.5-fold of each other.
Next, “3-[(4-pyridin-2-ylpiperazin-1-yl)carbonyl]-7-oxabicyclo[2.2.1]heptane-2-carboxylic acid [Example 17]”: 2.67 µM; “3-pentyl-7-[(4-phenylpiperazin-1-yl)carbonyl]-2-thioxo-2,3-dihydroquinazolin-4(1H)-one [Example 18]”: above 10 µM.
In the case of “4-({2-[(4-chlorophenyl)amino]-1-methyl-1H-benzimidazol-5-yl}oxy)-N-1,3-thiazol-2-ylpyridine-2-carboxamide [Example 9]” it was 0.205 µM; in that of `CNC(=O)c1cc(Oc2ccc3[nH]c(Nc4ccccc4C(C)C)nc3c2)ccn1` [Example 2, N-methyl-4-[(2-{[2-(1-methylethyl)phenyl]amino}-1H-benzimidazol-5-yl)oxy]pyridine-2-carboxamide], 4.81 µM; in that of `CCOc1ccccc1C(=O)N1CCN(c2cccc(Cl)c2)CC1` [Example 14, 1-(3-chlorophenyl)-4-{[2-(ethyloxy)phenyl]carbonyl}-piperazine], 1.38 µM.
In the case of `COc1cccc(C(=O)N2CCc3cc(OC)c(OC)cc3C2C)c1` (stereo not drawn) [Example 22], the half-maximal inhibitory concentration (IC50) was above 10 µM.
